Measurements reported in US12234208B2, “3,4-dihydroxy-n-(1′-benzyl-2′-hydroxyethyl)-2-methylpyridine chloride, and synthesis and use thereof” (HANGZHOU ZEDE PHARMA-TECH CO. LTD., priority 2020, dated 2025).
“Also recorded” adds a separate entry of the source.

Legend:
chronic MPTP mouse model [1] = test: Traction test in chronic MPTP mouse model; format: in vivo, C57/BL mice
Excerpt: Injection was implemented every 3.5 days for 5 weeks. MPTP was converted into metabolite MPP^+ by monoamine oxidase B in glial cells after crossing the blood-brain barrier. Due to its high affinity for dopamine transporters, MPP^+ can easily enter dopaminergic neurons. By inhibiting the toxic effect of the mitochondrial complex I, it can cause oxidative stress and break intracellular calcium homeostasis, thus causing the apoptosis or necrosis of dopaminergic neurons, and finally achieving the goal of simulating PD. Probenecid was used to prevent the rapid clearance and excretion of MPTP in the brain and kidneys. In the process of model preparation, the amount of probenecid had no significant influence on the content of the dopamine in the brain. After modeling, the mice were administrated (p.o.) with the drug for one month. The two forepaws of the mice were suspended on a horizontal metal wire (5 mm in diameter and 30 cm from the ground), and the time for mice to fall from the metal wire was recorded, wherein a time over 60 seconds was counted as 60 seconds. The mice were trained twice a day before the test. […] Finally, the scores were calculated and the time for the mice to fall from the metal wire were recorded, wherein a time over 60 seconds was counted as 60 seconds.

chronic MPTP mouse model [2] = test: Morris water maze test in chronic MPTP mouse model; format: in vivo, C57/BL mice; conditions: Compound A 100 mg/kg/d p.o. for one month; FIG. 2; 100 mg/kg/day
Description: A chronic MPTP (1-methyl-4-phenyl-1,2,3,6-tetrahydropyridine) mouse model was prepared to simulate PD. 250 mg/kg probenecid was intraperitoneally injected into the mice and then 25 mg/kg MPTP was intraperitoneally injected 0.5 hour later. Injection was implemented every 3.5 days for 5 weeks. MPTP was converted into metabolite MPP^+ by monoamine oxidase B in glial cells after crossing the blood-brain barrier. Due to its high affinity for dopamine transporters, MPP^+ can easily enter dopaminergic neurons. […]
The Morris water maze test can measure the changes in cognitive and memory ability. […] A camera with a display system was placed above the water maze, and the computer automatically tracked the timing and recorded the swimming track. […] The videos of the swimming path were recorded by the camera and computer, and the time of finding the platform from the entry point, namely the latency of escaping to the platform, was recorded. […] If they could not find and climb onto the platform in 90 seconds, the mice were artificially guided to find the platform and stay on the platform for 10 seconds, and the latency was recorded as 90 seconds. […] The latency was calculated on the average of four training sessions per day. […]

SMILES | suspension time compared with the chronic MPTP model control group (chronic MPTP mouse model [1]; Compound A 25 mg/kg/d p.o. for one month after modeling) | suspension score compared with the chronic MPTP model control group (chronic MPTP mouse model [1]; Compound A 25 mg/kg/d p.o. for one month, FIG. 1) | suspension time compared with the chronic MPTP model control group (chronic MPTP mouse model [1]; Compound A 100 mg/kg/d p.o. for one month after modeling) | muscle strength and coordination (conclusion) (chronic MPTP mouse model [1]; chronic MPTP mouse model, dose not given) | cognitive function of PD model animals (water maze latency) (chronic MPTP mouse model [2]) | suspension time compared with the chronic MPTP model (chronic MPTP mouse model [1]; Pramipexol 0.075 mg/kg/d p.o. for one month after modeling)
Cc1c(O)c(O)cc[n+]1[C@@H](CO)Cc1ccccc1 [Compound A, (R)-3,4-dihydroxyl-N-(1′-benzyl-2′-hydroxyethyl)-2-methyl pyridine chloride] | no significant difference | increased | no significant difference | tendency to improve muscle strength and coordination | may improve the cognitive function; also recorded: partially improve the cognitive function | –
CCCN[C@H]1CCc2nc(N)sc2C1 [Pramipexol, reference compound] | – | – | – | – | – | decreased
